Values of other authors as cited in patent publication US20060167069A1, “Pharmaceutical composition of metaxalone with enhanced oral bioavailability” (Sun Pharmaceutical Industries Ltd., priority 2002, published 2006).

Conditions: prior art statement

Cc1cc(C)cc(OCC2CNC(=O)O2)c1 (stereo not shown) [Metaxalone, 5-(3,5-dimethylphenoxymethyl)-2-oxazolidinone]
aqueous solubility: low aqueous solubility
